Results published in BindingDB's records for PubMed 8102785 (University of Pennsylvania, 1993).
*1 amine or outer side, *2 acyl side, *3 side chain or, on linkers, in order; H or OH if unused. Where a SMILES comes first, the peptide text is derived from it. Bridges are numbered along the chain shown (N, C = ends). [ ]: non-standard residue; d: D form. The star is where a group is joined. ξ: configuration not given here. NH(1-naphthylmethyl) = c1ccc2c(CN*)cccc2c1; Phe(4-Cl) = N[C@@H](Cc1ccc(Cl)cc1)C(=O)O; 2Nal = N[C@@H](Cc1ccc2ccccc2c1)C(=O)O; d1Nal = N[C@H](Cc1cccc2ccccc12)C(=O)O; d2Nal = N[C@H](Cc1ccc2ccccc2c1)C(=O)O; 1Nal = N[CH](Cc1cccc2ccccc12)C(=O)O; X1 = O=C(C(N[*:1])S[*:3])[*:2]; Thr(3ξ) = CC(O)[C@H](N)C(=O)O; Thr(ol) = C[CH](O)[CH](N)CO; NMeA = CN[C@@H](C)C(=O)O; Abu = CC[C@H](N)C(=O)O; Aoc = NCCCCCCCC(=O)O; Ahp = NCCCCCCC(=O)O; Bn = c1ccc(C*)cc1; ξC = NC(CS)C(=O)O; Mpa = O=C(O)CCS

biological target: Somatostatin receptor type 4 (Rattus norvegicus, UniProt P30937)
Sequence (P30937 whole entry): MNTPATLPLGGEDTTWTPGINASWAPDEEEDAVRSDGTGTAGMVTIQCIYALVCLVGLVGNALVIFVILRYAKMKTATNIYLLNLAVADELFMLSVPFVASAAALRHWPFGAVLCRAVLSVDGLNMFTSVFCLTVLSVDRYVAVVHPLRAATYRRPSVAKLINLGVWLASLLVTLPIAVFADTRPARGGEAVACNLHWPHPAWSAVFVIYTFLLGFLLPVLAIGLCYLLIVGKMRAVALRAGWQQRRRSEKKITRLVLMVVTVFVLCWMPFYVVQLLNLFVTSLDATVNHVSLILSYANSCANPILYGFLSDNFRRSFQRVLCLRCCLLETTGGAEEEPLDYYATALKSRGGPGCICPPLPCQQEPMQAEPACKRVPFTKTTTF

Q: Which Ki does the source give for `C[C@@H](O)[C@H](NC(=O)[C@H](Cc1ccccc1)NC(=O)[C@@H](NC(=O)[C@H](CCCCN)NC(=O)[C@@H](Cc1c[nH]c2ccccc12)NC(=O)[C@H](Cc1ccccc1)NC(=O)[C@H](Cc1ccccc1)NC(=O)[C@H](N)Cc1ccccc1)[C@@H](C)O)C(N)=O` [CAS_133073-82-2] (H-[dF]FF[dW]KTFT-NH2) here?
A: The Ki was 0.002 nM.

Q: How did the Ki turn out when `CC(C)[C@H](NC(=O)[C@H](CCCCN)NC(=O)[C@@H](Cc1c[nH]c2ccccc12)NC(=O)[C@H](Cc1ccc(O)cc1)NC(=O)[C@H](Cc1ccccc1)NC(=O)[C@@H](N)Cc1ccccc1)C(=O)N[C@@H](Cc1ccccc1)C(=O)N[C@H](C(N)=O)[C@@H](C)O` [BIM-23058] (H-FFY[dW]KVFT-NH2) was run?
A: Its Ki is 1.2 nM.

Q: `C[C@@H](Oc1ccccc1)[C@@H]1NC(=O)[C@H](CCCCN)NC(=O)[C@@H](Cc2c[nH]c3ccccc23)NC(=O)[C@H](Cc2ccccc2)NCCCCCCNC1=O` [c[Aha-Phe-D-Trp-Lys-Thr(Bzl)]] was tested. Which Ki did it give?
A: Its Ki is 51 nM.

Q: With `C[C@@H](OCc1ccccc1)[C@@H]1NC(=O)[C@H](CCCCN)NC(=O)[C@@H](Cc2c[nH]c3ccccc23)NC(=O)[C@H](Cc2ccccc2)NC(=O)CCCCCCCNC1=O` [c[Aoc-Phe-D-Trp-Lys-Thr(Bzl)]] (cyclo([Aoc]F[dW]KT(Bn))) as the compound, how does the Ki read?
A: Its Ki is 50 nM.

Q: With `CC1NC(=O)C(CCCCN)NC(=O)C(Cc2c[nH]c3ccccc23)NC(=O)C(Cc2ccc(O)cc2)NC(=O)C(NC(=O)C(N)Cc2ccccc2)CSSCC(C(=O)NCc2cccc3ccccc23)NC1=O` (stereo not drawn) [BIM 23034] (H-FCYWKAC-{NH(1-naphthylmethyl)}; disulfide 2-7; configuration not given here) as the compound, how does the Ki read?
A: The Ki was 0.19 nM.

Q: How did the Ki turn out when `CC[C@@H]1NC(=O)[C@H](CCCCN)NC(=O)[C@@H](Cc2c[nH]c3ccccc23)NC(=O)[C@H](Cc2ccc(O)cc2)NC(=O)[C@@H](NC(=O)[C@H](N)Cc2ccccc2)CSSC[C@@H](C(=O)N[C@H](C(N)=O)[C@@H](C)O)NC1=O` [D-Phe-L-Cys(1)-L-Tyr-D-Trp-L-Lys-L-Abu-L-Cys(1)-L-Thr-NH2] was run?
A: The Ki was 0.18 nM.

Q: With `C[C@@H](O)[C@@H]1NC(=O)[C@H](CCCCN)NC(=O)[C@@H](Cc2c[nH]c3ccccc23)NC(=O)[C@H](Cc2ccccc2)NC(=O)[C@H](Cc2ccc(Cl)cc2)NC(=O)CCCCCCNC(=O)[C@H](Cc2ccccc2)NC1=O` [L-362862] (cyclo([Ahp][Phe(4-Cl)]F[dW]KTF)) as the compound, how does the Ki read?
A: The Ki was 0.47 nM.

Q: Which Ki does the source give for `C[C@@H](O)[C@@H]1NC(=O)[C@H](CCCCN)NC(=O)[C@@H](Cc2c[nH]c3ccccc23)NC(=O)[C@H](Cc2c[nH]c3ccccc23)NC(=O)[C@H](Cc2ccccc2)NC(=O)CCCCCCNC(=O)[C@H](Cc2ccccc2)NC1=O` [L-362855] (cyclo([Ahp]FW[dW]KTF)) here?
A: The Ki was 0.005 nM.

Q: For `C[C@@H](O)[C@H](NC(=O)[C@H](Cc1ccccc1)NC(=O)[C@@H](NC(=O)[C@H](CCCCN)NC(=O)[C@@H](Cc1c[nH]c2ccccc12)NC(=O)[C@H](Cc1ccc(O)cc1)NC(=O)[C@H](Cc1ccc(Cl)cc1)NC(=O)[C@H](N)Cc1ccc2ccccc2c1)[C@@H](C)O)C(N)=O` [CAS_150155-63-8] (H-[d2Nal][Phe(4-Cl)]Y[dW]KTFT-NH2), which Ki is on record?
A: The Ki was 9.5 nM.

Q: Which Ki does the source give for `CC(C)C1NC(=O)C(CCCCN)NC(=O)C(Cc2c[nH]c3ccccc23)NC(=O)C(Cc2ccc(O)cc2)NC(=O)C(NC(=O)C(N)Cc2cccc3ccccc23)CSSCC(C(=O)NC(CO)C(C)O)NC1=O` (stereo not drawn) [DC23-60] (H-[1Nal]CYWKVC[Thr(ol)]; disulfide 2-7; configuration not given here) here?
A: The Ki was 1.5 nM.

Q: For `C[C@@H](O)[C@H](NC(=O)[C@@H]1CSSC[C@H](NC(=O)[C@H](N)Cc2ccc3ccccc3c2)C(=O)N[C@@H](Cc2ccc(O)cc2)C(=O)N[C@H](Cc2c[nH]c3ccccc23)C(=O)N[C@@H](CCCCN)C(=O)N[C@@H]([C@@H](C)O)C(=O)N1)C(N)=O` [D-Nal-c[Cys-Tyr-D-Trp-Lys-Thr-Cys]-Thr-NH2], which Ki is on record?
A: Its Ki is 0.08 nM.

Q: How did the Ki turn out when `CC(O)[C@@H]1NC(=O)[C@@H](CCCCN)NC(=O)[C@H](Cc2c[nH]c3ccccc23)NC(=O)[C@@H](Cc2ccccc2)NC(=O)[C@H](Cc2ccccc2)NC(=O)[C@@H](CC(N)=O)NC(=O)[C@H](CCCCN)NC(=O)[C@@H](NC(=O)CNC(=O)[C@H](C)N)CSSC[C@H](C(=O)O)NC(=O)[C@@H](CO)NC(=O)[C@H]([C@@H](C)O)NC(=O)[C@@H](Cc2ccccc2)NC1=O` (stereo partly drawn) [SRIF-D-Trp8] was run?
A: Its Ki is 0.002 nM.

Q: For `CC(C)[C@H](NC(=O)[C@H](CCCCN)NC(=O)[C@@H](Cc1c[nH]c2ccccc12)NC(=O)[C@H](Cc1ccc(O)cc1)NC(=O)[C@H](Cc1ccc(Cl)cc1)NC(=O)[C@@H](N)Cc1ccccc1)C(=O)N[C@@H](Cc1ccccc1)C(=O)N[C@H](C)C(N)=O` [BIM 23064] (H-F[Phe(4-Cl)]Y[dW]KVF[dA]-NH2), which Ki is on record?
A: The Ki was 17 nM.

Q: With `CC(C)[C@H](NC(=O)[C@H](CCCCN)NC(=O)[C@@H](Cc1c[nH]c2ccccc12)NC(=O)[C@H](Cc1ccc(O)cc1)NC(=O)[C@H](Cc1ccccc1)NC(=O)[C@H](N)Cc1ccccc1)C(=O)N[C@@H](Cc1ccccc1)C(=O)N[C@H](Cc1cccc2ccccc12)C(N)=O` [BIM 23056] (H-[dF]FY[dW]KVF[d1Nal]-NH2) as the compound, how does the Ki read?
A: Its Ki is 43 nM.

Q: How did the Ki turn out when `CC(O)[C@H](NC(=O)[C@H](CCCCN)NC(=O)[C@@H](Cc1c[nH]c2ccccc12)NC(=O)[C@H](Cc1ccccc1)NC(=O)[C@@H](C)NC(=O)[C@@H](N)Cc1ccccc1)C(=O)N[C@@H](C)C(=O)N[C@H](C(N)=O)[C@@H](C)O` (stereo partly drawn) [BIM 23051] (H-F[dA]F[dW]K[Thr(3ξ)]AT-NH2) was run?
A: Its Ki is 53 nM.

Q: Which Ki does the source give for `C[C@@H](O)[C@@H]1NC(=O)[C@H](CCCCN)NC(=O)[C@@H](Cc2c[nH]c3ccccc23)NC(=O)[C@H](Cc2ccccc2)NC(=O)CCCCCCNC1=O` [c[Aha-Phe-D-Trp-Lys-Thr]] (cyclo([Ahp]F[dW]KT)) here?
A: The Ki was 1000 nM.

Q: With `CC[C@@H]1NC(=O)[C@H](CCCCN)NC(=O)[C@@H](Cc2c[nH]c3ccccc23)NC(=O)[C@H](Cc2ccc(O)cc2)NC(=O)[C@H](C)N(C)C(=O)[C@H](Cc2ccccc2)NC1=O` [BIM-23027] (cyclo([Abu]F[NMeA]Y[dW]K)) as the compound, how does the Ki read?
A: Its Ki is 6.2 nM.

Q: `CC[C@@H]1NC(=O)[C@H](CCCCN)NC(=O)[C@@H](Cc2c[nH]c3ccccc23)NC(=O)[C@H](Cc2ccc(O)cc2)NC(=O)[C@@H](NC(=O)[C@H](N)Cc2ccccc2)CSSC[C@@H](C(=O)N[C@@H](Cc2ccc3ccccc3c2)C(N)=O)NC1=O` [D-Phe-Cys-Tyr-D-Trp-Lys-Abu-Cys-Nal-NH] (H-[dF]CY[dW]K[Abu]C[2Nal]-NH2; disulfide 2-7) was tested. Which Ki did it give?
A: The Ki was 6 nM.

Q: With `C[C@@H](O)[C@@H]1NC(=O)[C@H](CCCCN)NC(=O)[C@@H](Cc2c[nH]c3ccccc23)NC(=O)[C@H](Cc2ccccc2)NC(=O)[C@@H]2CSSCC(NC1=O)C(=O)NCCCCCCC(=O)N2` [(1R,4S,7S,10R,13S,16R)-4-[(R)-1-Hydroxyethyl]-7-(4-aminobutyl)-10-(1H-indole-3-ylmethyl)-13-benzyl-28,29-dithia-2,5,8,11,14,17,25-heptaazabicyclo[14.10.4]triacontane-3,6,9,12,15,18,26-heptone] (cyclo([Ahp]CF[dW]KT[ξC]); disulfide 2-7) as the compound, how does the Ki read?
A: Its Ki is 1.2 nM.

Q: With `CC(C)[C@H](NC(=O)[C@H](CCCCN)NC(=O)[C@@H](Cc1c[nH]c2ccccc12)NC(=O)[C@H](Cc1ccc(O)cc1)NC(=O)[C@H](C)NC(=O)[C@H](N)Cc1ccccc1)C(=O)N[C@@H](C)C(=O)N[C@@H](Cc1ccc2ccccc2c1)C(N)=O` [L-Alaninamide,D-phenylalanyl-L-alanyl-L-tyrosyl-D-tryptophyl-L-lysyl-L-valyl-L-alanyl-3-(2-naphthalenyl)-(9CI)] (H-[dF]AY[dW]KVA[2Nal]-NH2) as the compound, how does the Ki read?
A: The Ki was 29 nM.

Q: How did the Ki turn out when `C[C@@H](O)[C@H](NC(=O)[C@H](Cc1ccccc1)NC(=O)[C@@H](NC(=O)[C@H](CCCCN)NC(=O)[C@@H](Cc1c[nH]c2ccccc12)NC(=O)[C@H](Cc1ccc(O)cc1)NC(=O)[C@H](Cc1ccc(Cl)cc1)NC(=O)[C@H](N)Cc1ccccc1)[C@@H](C)O)C(N)=O` [BIM 23068] (H-[dF][Phe(4-Cl)]Y[dW]KTFT-NH2) was run?
A: The Ki was 1.1 nM.

Q: Which Ki does the source give for `CC(C)[C@@H]1NC(=O)[C@H](CCCCN)NC(=O)[C@@H](Cc2c[nH]c3ccccc23)NC(=O)[C@H](Cc2ccc(O)cc2)NC(=O)[C@@H](NC(=O)[C@H](N)Cc2ccc3ccccc3c2)CSSC[C@@H](C(=O)N[C@@H](Cc2ccc3ccccc3c2)C(N)=O)NC1=O` [BIM 23042] (H-[d2Nal]CY[dW]KVC[2Nal]-NH2; disulfide 2-7) here?
A: The Ki was 5.2 nM.

Q: `CC(C)[C@@H]1NC(=O)[C@H](CCCCN)NC(=O)[C@@H](Cc2c[nH]c3ccccc23)NC(=O)[C@H](Cc2ccc(O)cc2)NC(=O)CCSSC(C(=O)N[C@@H](Cc2ccccc2)C(N)=O)NC1=O` (stereo partly drawn) [CAS_117580-24-2] ([Mpa]Y[dW]KV[X1]F-NH2; disulfide 1-6) was tested. Which Ki did it give?
A: The Ki was 3.9 nM.
